Experimental data: PMC6751662, “Pharmacological and functional similarities of the human neuropeptide Y system in C. elegans challenges phylogenetic views on the FLP/NPR system” (Cell Communication and Signaling : CCS, 2019)
Ends that are not written are not given here.

Tests used:
Assay type in all cases: cell-based, C. elegans
NPR-3 = biological target: T1, NPR-3 (Caenorhabditis elegans, UniProt P90745); test: cAMP reporter gene assay, Gi/o (inhibition of forskolin-induced cAMP), NPR-3; details: for cAMP, x-fold of forskolin (mean), NPR-3: 1 µM forskolin set to 1.00, transiently transfected HEK293 cells, mean of at least three independent experiments; for cAMP assay Gi, NPR-3: 4 h, lower = higher Gi/o activity, transfected HEK293, CRE-luciferase, mean of >=3 independent experiments
T1 construct: expressed in transfected cells; host or cells: HEK293
T1 sequence (P90745 1-376): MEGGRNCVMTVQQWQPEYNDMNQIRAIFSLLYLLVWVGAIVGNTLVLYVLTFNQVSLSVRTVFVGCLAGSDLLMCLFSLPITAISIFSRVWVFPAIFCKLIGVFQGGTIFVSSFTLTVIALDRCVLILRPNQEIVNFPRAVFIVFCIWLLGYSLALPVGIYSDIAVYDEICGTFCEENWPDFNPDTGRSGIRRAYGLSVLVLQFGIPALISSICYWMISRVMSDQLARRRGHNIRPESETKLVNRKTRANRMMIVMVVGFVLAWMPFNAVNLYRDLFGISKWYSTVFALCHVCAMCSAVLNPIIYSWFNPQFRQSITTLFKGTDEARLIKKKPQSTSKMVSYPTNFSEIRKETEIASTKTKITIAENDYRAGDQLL
Method: (§1) Activation of Gs and Gi/o was assessed with a cAMP reporter gene assay. HEK293 cells grown to 70–80% confluency in 6-well plates were transiently co-transfected with vectors encoding the receptor and the cAMP reporter gene plasmid pGL4.29 [luc2P/CRE/Hygro] (Promega; 4 μg total, 1:1 ratio) using Metafectene Pro (3 μl/μg DNA; Biontex) following the manufacturer’s instructions. 16 h post transfection, the cells were seeded into white 384-well plates at a density of 20,000 cells/well. On the next day, the medium was removed and the cells were stimulated with 20 μl of peptide solution (or forskolin as positive control) in serum-free DMEM for 4 h. For measuring Gi/o activity, the peptide solutions additionally contained 1 μM forskolin to elevate cellular cAMP levels. After incubation, the luciferase substrate OneGlo in lysis buffer (Promega) was added and the luminescence was measured in a microplate reader Tecan Spark (Tecan). Data were analyzed with GraphPad Prism 5.03 and are shown as fold of basal or fold of forskolin in case of Gαi/o activity.
(§2) For in vitro activation, data is presented as mean ± SEM of at least three independent experiments conducted in technical triplicate. […] For the C. elegans NPRs, we considered the strongest response elicited by any of the peptides downstream of a particular receptor as the receptor’s maximal signal. This may or may not be the biological maximum that can be reached by the ‘true’ endogenous agonist. For the human receptors, the response to the established endogenous agonist reflected the maximal signal.

NPR-4b = biological target: T2, NPR-4b (Caenorhabditis elegans, UniProt A0A078BTK0); test: cAMP reporter gene assay, Gi/o (inhibition of forskolin-induced cAMP), NPR-4b; details: for cAMP, x-fold of forskolin (mean), NPR-4b: 1 µM forskolin set to 1.00, mean of at least three independent experiments; for cAMP assay Gi, NPR-4b: 4 h, lower = higher Gi/o activity, transfected HEK293, CRE-luciferase, mean of >=3 independent experiments
T2 sequence (A0A078BTK0 1-376): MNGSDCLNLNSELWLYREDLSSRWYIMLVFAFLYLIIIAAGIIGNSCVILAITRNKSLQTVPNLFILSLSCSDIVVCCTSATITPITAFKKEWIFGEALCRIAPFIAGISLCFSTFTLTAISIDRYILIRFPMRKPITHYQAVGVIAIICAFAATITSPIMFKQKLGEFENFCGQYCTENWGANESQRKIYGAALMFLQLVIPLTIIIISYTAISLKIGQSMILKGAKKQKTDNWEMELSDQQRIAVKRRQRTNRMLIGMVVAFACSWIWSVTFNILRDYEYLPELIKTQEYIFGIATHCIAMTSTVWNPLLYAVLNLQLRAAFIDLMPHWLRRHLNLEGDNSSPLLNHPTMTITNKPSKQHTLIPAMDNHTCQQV
Method: as §1, with “(Tecan).” for “(Tecan). Data were analyzed with GraphPad Prism 5.03 and are shown as fold of basal or fold of forskolin in case of Gαi/o activity.”
as §2

NPR-5b = biological target: T3, NPR-5b (Caenorhabditis elegans, UniProt Q6F3C9); test: cAMP reporter gene assay, Gi/o (with forskolin), NPR-5b; set-up: Emax: unit not given here; details: for cAMP, x-fold of forskolin (mean), NPR-5b: 1 µM forskolin set to 1.00, values > 1 = cAMP stimulation, mean of at least three independent experiments; for cAMP assay Gi, NPR-5b: 4 h, transfected HEK293, CRE-luciferase, increase consistent with Gs coupling, mean of >=3 independent experiments
T3 sequence (Q6F3C9 1-433): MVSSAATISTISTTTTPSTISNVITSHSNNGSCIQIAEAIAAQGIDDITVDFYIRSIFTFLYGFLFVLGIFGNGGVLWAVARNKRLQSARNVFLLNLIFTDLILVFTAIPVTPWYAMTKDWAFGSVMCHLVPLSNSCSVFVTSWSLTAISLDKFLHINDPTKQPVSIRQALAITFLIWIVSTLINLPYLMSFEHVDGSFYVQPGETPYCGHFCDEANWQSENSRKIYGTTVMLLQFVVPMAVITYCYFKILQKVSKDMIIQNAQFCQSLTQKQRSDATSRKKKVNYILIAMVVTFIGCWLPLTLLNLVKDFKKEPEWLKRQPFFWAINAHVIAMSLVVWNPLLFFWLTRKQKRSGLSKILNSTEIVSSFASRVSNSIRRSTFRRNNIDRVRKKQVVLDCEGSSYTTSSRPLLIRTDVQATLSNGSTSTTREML
Method: as §1, with “(Tecan).” for “(Tecan). Data were analyzed with GraphPad Prism 5.03 and are shown as fold of basal or fold of forskolin in case of Gαi/o activity.”
as §2

NPR-11 = biological target: T4, NPR-11 (Caenorhabditis elegans, UniProt Q18179); test: cAMP reporter gene assay, Gi/o (inhibition of forskolin-induced cAMP), NPR-11; details: for cAMP, x-fold of forskolin (mean), NPR-11: 1 µM forskolin set to 1.00, mean of at least three independent experiments; for cAMP assay Gi, NPR-11: 4 h, lower = higher Gi/o activity, transfected HEK293, CRE-luciferase, mean of >=3 independent experiments
T4 construct: expressed in transfected cells; host or cells: HEK293, transient
T4 sequence (Q18179 1-402): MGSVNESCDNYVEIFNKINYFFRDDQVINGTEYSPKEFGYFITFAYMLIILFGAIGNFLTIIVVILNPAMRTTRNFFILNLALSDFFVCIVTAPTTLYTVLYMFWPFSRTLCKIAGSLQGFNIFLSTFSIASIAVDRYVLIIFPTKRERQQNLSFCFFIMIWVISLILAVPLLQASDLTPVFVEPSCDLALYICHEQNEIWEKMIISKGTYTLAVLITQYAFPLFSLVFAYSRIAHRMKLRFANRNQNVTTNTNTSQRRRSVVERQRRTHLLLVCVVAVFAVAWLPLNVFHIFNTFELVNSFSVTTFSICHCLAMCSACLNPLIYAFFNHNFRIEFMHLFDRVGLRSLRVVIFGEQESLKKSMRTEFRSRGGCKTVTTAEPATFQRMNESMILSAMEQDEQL
Method: as §1, §2

[1] = 0.1 µM peptide, transiently transfected HEK293 cells
[2] = 10 µM peptide, transiently transfected HEK293 cells
[3] = 0.1 µM peptide + 1 µM forskolin (set to 1.00)
[4] = 10 µM peptide + 1 µM forskolin (set to 1.00)

Substance | cAMP, x-fold of forskolin (mean), NPR-3 (NPR-3; 0.1 µM peptide) | cAMP, x-fold of forskolin (mean), NPR-3 (NPR-3; 10 µM peptide) | cAMP, x-fold of forskolin (mean), NPR-4b (NPR-4b; [1]) | cAMP, x-fold of forskolin (mean), NPR-4b (NPR-4b; [2]) | cAMP, x-fold of forskolin (mean), NPR-5b (NPR-5b; [1]) | cAMP, x-fold of forskolin (mean), NPR-5b (NPR-5b; [2]) | cAMP, x-fold of forskolin (mean), NPR-11 (NPR-11; [1]) | cAMP, x-fold of forskolin (mean), NPR-11 (NPR-11; [2]) | other results
AGSDPNFLRF-NH2 [FLP-1-2, C. elegans FMRFamide-like peptide, C-terminally amidated, synthesized by SPPS] | 0.87 x-fold of forskolin | 1.02 x-fold of forskolin | 0.81 x-fold of forskolin | 0.42 x-fold of forskolin | 1.02 x-fold of forskolin | 1.72 x-fold of forskolin | 0.92 x-fold of forskolin | 0.72 x-fold of forskolin | –
ASPSFIRF-NH2 [FLP-4-2, C. elegans FMRFamide-like peptide, C-terminally amidated, synthesized by SPPS] | 0.94 x-fold of forskolin | 0.83 x-fold of forskolin | 0.52 x-fold of forskolin | 0.19 x-fold of forskolin | 0.90 x-fold of forskolin | 1.82 x-fold of forskolin | 0.89 x-fold of forskolin | 0.83 x-fold of forskolin | –
SEVPGVLRF-NH2 [FLP-18-5] | – | – | – | – | – | – | – | – | Emax (NPR-4b; NPR-4b, forskolin (1 µM) set to 1.00, lower values correspond to high Gi/o activity, transiently transfected HEK293 cells, mean ± SEM of at least three independent experiments, SEM): -0.6 ± 0.05%; Emax (NPR-5b; NPR-5b, forskolin (1 µM) set to 1.00, increase of cAMP, transiently transfected HEK293 cells, mean ± SEM of at least three independent experiments, SEM): 3.6 ± 0.22; Emax (NPR-11; HEK293, read-out: Emax ± SEM [%], SEM): -0.16 ± 0.08%; EC50 (NPR-11; SEM): 79.4 nM

Further lines, with some results ahead:

cAMP, x-fold of forskolin (mean), NPR-3 (NPR-3; 0.1 µM peptide) | cAMP, x-fold of forskolin (mean), NPR-3 (NPR-3; 10 µM peptide) | cAMP, x-fold of forskolin (mean), NPR-4b (NPR-4b; [1]) | cAMP, x-fold of forskolin (mean), NPR-4b (NPR-4b; [2]) | cAMP, x-fold of forskolin (mean), NPR-5b (NPR-5b; [1]) | cAMP, x-fold of forskolin (mean), NPR-5b (NPR-5b; [2]) | cAMP, x-fold of forskolin (mean), NPR-11 (NPR-11; [1]) | cAMP, x-fold of forskolin (mean), NPR-11 (NPR-11; [2]) | Substance | other results
0.66 x-fold of forskolin | 0.86 x-fold of forskolin | 0.73 x-fold of forskolin | 0.36 x-fold of forskolin | 0.91 x-fold of forskolin | 1.96 x-fold of forskolin | 0.94 x-fold of forskolin | 0.48 x-fold of forskolin | APKPKFIRF-NH2 [FLP-5-1, C. elegans FMRFamide-like peptide, C-terminally amidated, synthesized by SPPS] | cAMP assay Gi, NPR-3 (NPR-3; [3]): 0.68 x-fold of forskolin; cAMP assay Gi, NPR-3 (NPR-3; [4]): 0.87 x-fold of forskolin; cAMP assay Gi, NPR-4b (NPR-4b; [3]): 0.75 x-fold of forskolin; cAMP assay Gi, NPR-4b (NPR-4b; [4]): 0.40 x-fold of forskolin; cAMP assay Gi, NPR-5b (NPR-5b; [3]): 0.92 x-fold of forskolin; cAMP assay Gi, NPR-5b (NPR-5b; [4]): 1.90 x-fold of forskolin; cAMP assay Gi, NPR-11 (NPR-11; [3]): 0.94 x-fold of forskolin; cAMP assay Gi, NPR-11 (NPR-11; [4]): 0.51 x-fold of forskolin
0.77 x-fold of forskolin | 0.85 x-fold of forskolin | 0.85 x-fold of forskolin | 0.79 x-fold of forskolin | 0.79 x-fold of forskolin | 0.85 x-fold of forskolin | 0.77 x-fold of forskolin | 0.21 x-fold of forskolin | APLEGFEDMSGFLRTIDGIQKPRF-NH2 [FLP-33, NPY-like C. elegans FLP with C-terminal RxRF/Ya signature] | Emax ± SEM [%] (NPR-11; NPR-11, forskolin (1 µM) set to 1.00, lower values correspond to high Gi/o activity, transiently transfected HEK293 cells, mean ± SEM of at least three independent experiments, SEM): -0.57 ± 0.06%
1.02 x-fold of forskolin | 1.25 x-fold of forskolin | 1.05 x-fold of forskolin | 1.14 x-fold of forskolin | 0.86 x-fold of forskolin | 0.96 x-fold of forskolin | 0.37 x-fold of forskolin | 0.14 x-fold of forskolin | APLEPVYPGDNATPEQMAQYAADLRRYINMLTRPRY-NH2 [PP, human pancreatic polypeptide, reference compound] | –
